Assay results: patent US5053070A, “Pyrimidine derivatives, preparation processes thereof, herbicide containing the same, and herbicidal compositions containing the same along with other active ingredient” (Mitsui Toatsu Chemicals, Incorporated, priority 1988, dated 1991)

Tests used:
[1] = tested on: ALS (acetolactate syntase); experiment: ALS enzyme assay (Test 1); assay type: biochemical, pea; conditions: 1,000 ppm (0.5 mg/0.5 ml)
Method: (§1) To determine the selectivity in enzyme level between crops and weeds, and ALS enzyme assay was conducted using pea as a representative of broadleaf crops and barnyardgrass as a representative of narrowleaf weeds.
(§2) After seeds of pea and barnyardgrass were allowed to germinate at 25° C. for 8-14 days in a dark place, partially-purified suspensions (Suspensions A) of acetolactate syntase were separately obtained from seedlings in accordance with the method described in the literature, Plant Physiology, 75, 827-831.
(§3) In a test tube, 0.5 mg of one of test compounds was weighed, followed by the addition of 0.15 ml of a 20 mM K2 HPO4 solution and 0.25 ml of a reaction substrate medium which consisted of 40 mM of K2 HPO4, 40 mM of sodium pyruvate, 1 mM of TPP, 1 mM of MgCl2 and 20 μM of FAD so that 0.4 ml of a reaction solution (Solution B) was prepared. Added to 0.4 ml of Solution B was 0.1 ml of suspension A. After the resultant mixture was shaken for 1 hour in a thermostat water bath controlled at 30° C., 50 μl of 6N sulfuric acid were added to terminate the reaction.
(§4) Next, the reaction-terminated liquid mixture was transferred into a thermostat water bath controlled at 60° C. and was heated for 15 minutes. Thereafter, 0.5 ml of a 0.5% creatine solution and 0.5 ml of a 5% alkaline α-naphthol solution were added, and the resultant mixture was maintained at 60° C. for 15 minutes. As a result, the test solution developed a pink-red color. After the above operation, the absorbance of the test solution at 525 nm was measured by a spectrophotometer (Absorbance 1 of Test Compound).
(§5) On the other hand, the absorbance (Absorbance 2 of Blank) of a solution obtained by subjecting a portion of Solution B, said portion being free of the test compound, to the above operation and the absorbance (Absorbance 3 of sulfuric acid terminated) of another solution obtained by subjecting another portion of Solution B, said portion containing 50 μl of 6N sulfuric acid as a test compound, were measured at the same time. Based on the values of the respective measurements, the enzyme assay at 1,000 ppm (0.5 mg/0.5 ml) of each compound was determined. [formula]

green foxtail [2] = experiment: Upland foliar application test by mixed formulations (Test 7); assay type: in vivo; conditions: applied alone, 30th day; for pest or weed control at 1000 g/ha: 1 kg/ha
Method: (§6) Resin-made 1/10,000-are pots were filled with the soil of an upland field. Redroot pigweed, morningglories, johnsongrass, barnyardgrass and green foxtail were separately seeded and were allowed to germinate in a green house. When each plant grew to the stage of 2-3 leaves, an emulsion formulated from predetermined amounts of two test compounds of different kinds in a similar manner to the method described in Formulation Example 16 was diluted with water to a predetermined dilution rate and then sprayed at an application rate equal to 5 l per are onto the foliage of each plant by means of a pressure-operated ULV (ultra low volume) sprayer. Influence to the weeds were observed on the 30th day after the spray of the herbicides. In the table, each Ea means an acutally measured value of herbicidal activities when two kinds of herbicides were mixed. Each Ec is an expected value for herbicidal activities, calculated in accordance with the below-described calculation formula proposed by Colby et al. [Colby, S. R., Weed 15, 20-22 (1967)]. Ea>Ec indicates the existence of synergistic action while […] action. [formula] Ec: Growth inhibition rate (%) expected when Ingredient I and Ingredient II are mixed.
(§7) Ex: Growth inhibition rate (%) when treated with Ingredient I alone.
(§8) Ey: Growth inhibition rate (%) when treated with Ingredient II alone.

morningglories = experiment: as above; assay type: in vivo; conditions: Ipomoea, 720 h, applied alone, 30th day, read-out: Herbicidal effects (%) Morningglory Ea; for pest or weed control at 1000 g/ha: 1 kg/ha
Method: as §6, §7, §8

barnyardgrass [3] = experiment: as above; assay type: in vivo; conditions: Echinochloa crus-galli, 720 h, applied alone, 30th day, read-out: Herbicidal effects (%) Barnyardgrass Ea; for pest or weed control at 1000 g/ha: 1 kg/ha
Method: as §6, §7, §8

redroot pigweed [4] = experiment: as above; assay type: in vivo; conditions: Amaranthus retroflexus, 720 h, applied alone, 30th day, read-out: Herbicidal effects (%) Redrood pigweed Ea; for pest or weed control at 1000 g/ha: 1 kg/ha
Method: as §6, §7, §8

johnsongrass = experiment: Upland soil application test (Test 2); assay type: in vivo; conditions: 30 g ai/a, soil spray before emergence, 30 days later
Method: (§9) Resin-made 1/2500-are pots were filled with the soil of an upland field. After they were fertilized, soybean, peanut and cotton were seeded and 2-3 cm soil covering was applied. Seeds of redroot pigweed, common lambsquarters, barnyardgrass, green foxtail, large crabgrass, foxtail meadow and johnsongrass had been uniformly mixed with the soil. They were allowed to germinate in a green house. One day later (before emergence of weeds), a wettable powder prepared from a predetermined amount of each test compound in a similar manner to the method described in Formulation Example 1 was diluted with water and then sprayed evenly at an application rate equal to 10 l per are onto the surface of the soil by means of a pressure-operated ULV (ultra low volume) sprayer. Influence to the crops and weeds were observed 30 days later. The results are shown in Table 3, in which the degree of damages of each test plant and the degree of injury to each crop were determined by comparing the air-dried weights of the test plant and crop with those of the corresponding plant and crop in untreated pots and are shown in accordance with the following standard: […]

green foxtail [5] = experiment: Upland soil application test (Test 2); assay type: in vivo; conditions: 30 g ai/a, soil spray before emergence, 30 days later
Method: as §9

foxtail meadow = experiment: Upland soil application test (Test 2); assay type: in vivo; conditions: 30 g ai/a, soil spray before emergence, 30 days later
Method: as §9

common lambsquarters = experiment: Upland soil application test (Test 2); assay type: in vivo; conditions: 30 g ai/a, soil spray before emergence, 30 days later
Method: as §9

large crabgrass = experiment: Upland soil application test (Test 2); assay type: in vivo; conditions: 30 g ai/a, soil spray before emergence, 30 days later
Method: as §9

barnyardgrass [6] = experiment: Upland soil application test (Test 2); assay type: in vivo; conditions: 30 g ai/a, soil spray before emergence, 30 days later
Method: as §9

redroot pigweed [7] = experiment: Upland soil application test (Test 2); assay type: in vivo; conditions: 30 g ai/a, soil spray before emergence, 30 days later
Method: as §9

cotton = experiment: Upland soil application test (Test 2), crop injury; assay type: in vivo; conditions: 30 g ai/a, soil spray before emergence, 30 days later
Method: as §9

soybean = experiment: Upland soil application test (Test 2), crop injury; assay type: in vivo; conditions: 30 g ai/a, soil spray before emergence, 30 days later
Method: as §9

peanut = experiment: Upland soil application test (Test 2), crop injury; assay type: in vivo; conditions: 30 g ai/a, soil spray before emergence, 30 days later
Method: as §9

[8] = tested on: ALS (acetolactate syntase); experiment: ALS enzyme assay (Test 1); assay type: biochemical, barnyardgrass; conditions: 1,000 ppm (0.5 mg/0.5 ml)
Method: as §1, §2, §3, §4, §5

[9] = Setaria viridis, 720 h, read-out: Herbicidal effects (%) Green foxtail Ea

COc1cc(OC)nc(Oc2ccccc2C=NOCC=Cc2ccccc2)n1 [Compound No. 9]
Inhibitory activity (%) Pea [1]: 11% | pest or weed control at 300 g/ha (green foxtail [2]; Setaria viridis, 720 h, 0.3 kg/ha, read-out: Herbicidal effects (%) Green foxtail Ea): 70% | Herbicidal effects (%) Green foxtail Ea (green foxtail [2]; 0.3 kg/ha): 70% | pest or weed control at 300 g/ha (morningglories; 0.3 kg/ha): 0% | pest or weed control at 300 g/ha (barnyardgrass [3]; 0.3 kg/ha): 50% | pest or weed control at 300 g/ha (redroot pigweed [4]; 0.3 kg/ha): 50% | Herbicidal effects Johnsongrass (johnsongrass): 5 (0-5 (Death)) | Herbicidal effects Green foxtail (green foxtail [5]): 5 (0-5 (Death)) | Herbicidal effects Foxtail meadow (foxtail meadow): 5 (0-5 (Death)) | Herbicidal effects Common lambsquarters (common lambsquarters): 4 (6-10 (Severe damages)) | Herbicidal effects Large crabgrass (large crabgrass): 5 (0-5 (Death)) | Herbicidal effects Barnyardgrass (barnyardgrass [6]): 5 (0-5 (Death)) | Herbicidal effects Redroot pigweed (redroot pigweed [7]): 5 (0-5 (Death)) | Injury Cotton (cotton): 0 (91-100 (No damages)) | Injury Soybean (soybean): 0 (91-100 (No damages)) | Injury Peanut (peanut): 0 (91-100 (No damages)) | Inhibitory activity (%) Barnyardgrass [8]: 95%

C#CCON=Cc1ccccc1Oc1nc(OC)cc(OC)n1 [Compound No. 13, 0-(2-propynyl)-2-(4,6-dimethoxy-2-pyrimidinyloxy)benzaldoxime]
Inhibitory activity (%) Pea [1]: 0% | pest or weed control at 1000 g/ha (green foxtail [2]; [9]): 40% | pest or weed control at 1000 g/ha (morningglories): 10% | pest or weed control at 1000 g/ha (barnyardgrass [3]): 70% | pest or weed control at 1000 g/ha (redroot pigweed [4]): 70% | Herbicidal effects Johnsongrass (johnsongrass): 5 (0-5 (Death)) | Herbicidal effects Green foxtail (green foxtail [5]): 5 (0-5 (Death)) | Herbicidal effects Foxtail meadow (foxtail meadow): 5 (0-5 (Death)) | Herbicidal effects Common lambsquarters (common lambsquarters): 4 (6-10 (Severe damages)) | Herbicidal effects Large crabgrass (large crabgrass): 5 (0-5 (Death)) | Herbicidal effects Barnyardgrass (barnyardgrass [6]): 5 (0-5 (Death)) | Herbicidal effects Redroot pigweed (redroot pigweed [7]): 5 (0-5 (Death)) | Injury Cotton (cotton): 0 (91-100 (No damages)) | Injury Soybean (soybean): 0 (91-100 (No damages)) | Injury Peanut (peanut): 0 (91-100 (No damages)) | Inhibitory activity (%) Barnyardgrass [8]: 85%

COc1cc(OC)nc(Oc2ccccc2C=NOCc2ccccc2)n1 [Compound No. 15]
Inhibitory activity (%) Pea [1]: 0% | pest or weed control at 1000 g/ha (green foxtail [2]; [9]): 20% | pest or weed control at 1000 g/ha (morningglories): 0% | pest or weed control at 1000 g/ha (barnyardgrass [3]): 50% | pest or weed control at 1000 g/ha (redroot pigweed [4]): 50% | Herbicidal effects Johnsongrass (johnsongrass): 5 (0-5 (Death)) | Herbicidal effects Green foxtail (green foxtail [5]): 5 (0-5 (Death)) | Herbicidal effects Foxtail meadow (foxtail meadow): 5 (0-5 (Death)) | Herbicidal effects Common lambsquarters (common lambsquarters): 4 (6-10 (Severe damages)) | Herbicidal effects Large crabgrass (large crabgrass): 4 (6-10 (Severe damages)) | Herbicidal effects Barnyardgrass (barnyardgrass [6]): 5 (0-5 (Death)) | Herbicidal effects Redroot pigweed (redroot pigweed [7]): 4 (6-10 (Severe damages)) | Injury Cotton (cotton): 0 (91-100 (No damages)) | Injury Soybean (soybean): 0 (91-100 (No damages)) | Injury Peanut (peanut): 0 (91-100 (No damages)) | Inhibitory activity (%) Barnyardgrass [8]: 23%

COc1cc(OC)nc(Oc2ccccc2C=NOCC=Cc2ccc(C(F)(F)F)cc2)n1 [compound 35]
Inhibitory activity (%) Pea [1]: 10% | Herbicidal effects Johnsongrass (johnsongrass): 5 (0-5 (Death)) | Herbicidal effects Green foxtail (green foxtail [5]): 5 (0-5 (Death)) | Herbicidal effects Foxtail meadow (foxtail meadow): 5 (0-5 (Death)) | Herbicidal effects Common lambsquarters (common lambsquarters): 5 (0-5 (Death)) | Herbicidal effects Large crabgrass (large crabgrass): 5 (0-5 (Death)) | Herbicidal effects Barnyardgrass (barnyardgrass [6]): 5 (0-5 (Death)) | Herbicidal effects Redroot pigweed (redroot pigweed [7]): 4 (6-10 (Severe damages)) | Injury Cotton (cotton): 0 (91-100 (No damages)) | Injury Soybean (soybean): 0 (91-100 (No damages)) | Injury Peanut (peanut): 0 (91-100 (No damages)) | Inhibitory activity (%) Barnyardgrass [8]: 89%

COc1cc(OC)nc(Oc2ccccc2C=NOCC=Cc2ccc(C)cc2)n1 [compound 36]
Inhibitory activity (%) Pea [1]: 0% | Herbicidal effects Johnsongrass (johnsongrass): 5 (0-5 (Death)) | Herbicidal effects Green foxtail (green foxtail [5]): 5 (0-5 (Death)) | Herbicidal effects Foxtail meadow (foxtail meadow): 5 (0-5 (Death)) | Herbicidal effects Common lambsquarters (common lambsquarters): 4 (6-10 (Severe damages)) | Herbicidal effects Large crabgrass (large crabgrass): 5 (0-5 (Death)) | Herbicidal effects Barnyardgrass (barnyardgrass [6]): 5 (0-5 (Death)) | Herbicidal effects Redroot pigweed (redroot pigweed [7]): 4 (6-10 (Severe damages)) | Injury Cotton (cotton): 0 (91-100 (No damages)) | Injury Soybean (soybean): 0 (91-100 (No damages)) | Injury Peanut (peanut): 0 (91-100 (No damages)) | Inhibitory activity (%) Barnyardgrass [8]: 92%

CCc1ccc(C=CCON=Cc2ccccc2Oc2nc(OC)cc(OC)n2)cc1 [compound 37]
Inhibitory activity (%) Pea [1]: 0% | Herbicidal effects Johnsongrass (johnsongrass): 5 (0-5 (Death)) | Herbicidal effects Green foxtail (green foxtail [5]): 5 (0-5 (Death)) | Herbicidal effects Foxtail meadow (foxtail meadow): 5 (0-5 (Death)) | Herbicidal effects Common lambsquarters (common lambsquarters): 4 (6-10 (Severe damages)) | Herbicidal effects Large crabgrass (large crabgrass): 5 (0-5 (Death)) | Herbicidal effects Barnyardgrass (barnyardgrass [6]): 4 (6-10 (Severe damages)) | Herbicidal effects Redroot pigweed (redroot pigweed [7]): 4 (6-10 (Severe damages)) | Injury Cotton (cotton): 0 (91-100 (No damages)) | Injury Soybean (soybean): 0 (91-100 (No damages)) | Injury Peanut (peanut): 0 (91-100 (No damages)) | Inhibitory activity (%) Barnyardgrass [8]: 93%

COc1cc(OC)nc(Oc2ccccc2C=NOCC=Cc2cccc(Cl)c2Cl)n1 [compound 41]
Inhibitory activity (%) Pea [1]: 0% | Herbicidal effects Johnsongrass (johnsongrass): 4 (6-10 (Severe damages)) | Herbicidal effects Green foxtail (green foxtail [5]): 4 (6-10 (Severe damages)) | Herbicidal effects Foxtail meadow (foxtail meadow): 4 (6-10 (Severe damages)) | Herbicidal effects Common lambsquarters (common lambsquarters): 4 (6-10 (Severe damages)) | Herbicidal effects Large crabgrass (large crabgrass): 5 (0-5 (Death)) | Herbicidal effects Barnyardgrass (barnyardgrass [6]): 5 (0-5 (Death)) | Herbicidal effects Redroot pigweed (redroot pigweed [7]): 5 (0-5 (Death)) | Injury Cotton (cotton): 0 (91-100 (No damages)) | Injury Soybean (soybean): 0 (91-100 (No damages)) | Injury Peanut (peanut): 0 (91-100 (No damages)) | Inhibitory activity (%) Barnyardgrass [8]: 89%
